# Tests used:
# PC-3 cells = assay: MTT assay anticancer activity, PC-3; format: cell-based; details: Homo sapiens, PC-3, 5 µM, mean ± SEM, read-out: growth inhibition percentage of PC-3
# Text: MTT method was done as described above.
# LOX IMVI = assay: NCI anticancer screening, Melanoma LOX IMVI; format: cell-based; details: Homo sapiens, read-out: % Growth Inhibition (GI %)
# Text: (§1) The compound has been processed according to standard method NCI-60 Human Tumor Cell Lines Screen for organic compound at development therapeutic program (DTP). Requests for access to this national resource can be submitted online at: […]
# SK-MEL-28 = assay: NCI anticancer screening, Melanoma SK-MEL-28; format: cell-based; details: Homo sapiens; SK-MEL-28, 10 μM; read-out: % Growth Inhibition (GI %)
# Text: as §1
# OVCAR-4 = assay: NCI anticancer screening, Ovarian Cancer OVCAR-4; format: cell-based; details: Homo sapiens; OVCAR-4, 10 μM; read-out: % Growth Inhibition (GI %)
# Text: as §1
# MALME-3M = assay: NCI anticancer screening, Melanoma MALME-3M; format: cell-based; details: Homo sapiens, read-out: % Growth Inhibition (GI %)
# Text: as §1
# MCF7 = assay: NCI anticancer screening, Breast Cancer MCF7; format: cell-based; details: Homo sapiens; MCF7, 10 μM; read-out: % Growth Inhibition (GI %)
# Text: as §1
# RXF 393 = assay: NCI anticancer screening, Renal Cancer RXF 393; format: cell-based; details: Homo sapiens; RXF 393, 10 μM; read-out: % Growth Inhibition (GI %)
# Text: as §1
# NCI-H522 = assay: NCI anticancer screening, Non-Small Cell Lung Cancer NCI-H522; format: cell-based; details: Homo sapiens; NCI-H522, 10 μM; read-out: % Growth Inhibition (GI %)
# Text: as §1
# A549/ATCC = assay: NCI anticancer screening, Non-Small Cell Lung Cancer A549/ATCC; format: cell-based; details: Homo sapiens, read-out: % Growth Inhibition (GI %)
# Text: as §1
# NCI-H322M = assay: NCI anticancer screening, Non-Small Cell Lung Cancer NCI-H322M; format: cell-based; details: Homo sapiens, read-out: % Growth Inhibition (GI %)
# Text: as §1
# NCI-H460 = assay: NCI anticancer screening, Non-Small Cell Lung Cancer NCI-H460; format: cell-based; details: Homo sapiens; NCI-H460, 10 μM; read-out: % Growth Inhibition (GI %)
# Text: as §1
# RPMI-8226 = assay: NCI anticancer screening, Leukemia RPMI-8226; format: cell-based; details: Homo sapiens; RPMI-8226, 10 μM; read-out: % Growth Inhibition (GI %)
# Text: as §1
# MOLT-4 = assay: NCI anticancer screening, Leukemia MOLT-4; format: cell-based; details: Homo sapiens; MOLT-4, 10 μM; read-out: % Growth Inhibition (GI %)
# Text: as §1
# K-562 = assay: NCI anticancer screening, Leukemia K-562; format: cell-based; details: Homo sapiens, K562; K-562, 10 μM; read-out: % Growth Inhibition (GI %)
# Text: as §1
# SNB-19 = assay: NCI anticancer screening, CNS Cancer SNB-19; format: cell-based; details: Homo sapiens; SNB-19, 10 μM; read-out: % Growth Inhibition (GI %)
# Text: as §1
# KM12 = assay: NCI anticancer screening, Colon Cancer KM12; format: cell-based; details: Homo sapiens; KM12, 10 μM; read-out: % Growth Inhibition (GI %)
# Text: as §1
# HOP-92 = assay: NCI anticancer screening, Non-Small Cell Lung Cancer HOP-92; format: cell-based; details: Homo sapiens; HOP-92, 10 μM; read-out: % Growth Inhibition (GI %)
# Text: as §1
# T-47D = assay: NCI anticancer screening, Breast Cancer T-47D; format: cell-based; details: Homo sapiens, T47D, read-out: % Growth Inhibition (GI %)
# Text: as §1
# SW-620 = assay: NCI anticancer screening, Colon Cancer SW-620; format: cell-based; details: Homo sapiens; SW-620, 10 μM; read-out: % Growth Inhibition (GI %)
# Text: as §1
# HT29 = assay: NCI anticancer screening, Colon Cancer HT29; format: cell-based; details: Homo sapiens, HT-29; HT29, 10 μM; read-out: % Growth Inhibition (GI %)
# Text: as §1
# SF-268 = assay: NCI anticancer screening, CNS Cancer SF-268; format: cell-based; details: Homo sapiens; SF-268, 10 μM; read-out: % Growth Inhibition (GI %)
# Text: as §1
# HS 578T = assay: NCI anticancer screening, Breast Cancer HS 578T; format: cell-based; details: Homo sapiens, read-out: % Growth Inhibition (GI %)
# Text: as §1
# MDA-MB 231 cells = details: for inhibition: 5 µM
# Method: Anticancer effect of the above-mentioned compounds was assayed using three human cancer cell lines. Triple negative breast cancer cell line (MDA-MB 231) and prostate cancer cell line (PC3) were cultured in DMEM (Lonza, USA) supplemented with 10% FBS. All cancer cells (4x10^3 cells/well) were seeded in sterile 96-well plates. After 24h, serial concentrations of the tested compounds were incubated with three cancer cell lines for 72 h at 37 °C in 5% CO2 incubator. […] The half maximal inhibitory concentration (IC50) values were calculated using the Graphpad Instat software.
# SK-MEL-5 = assay: NCI anticancer screening, Melanoma SK-MEL-5; format: cell-based; details: Homo sapiens; SK-MEL-5, 10 μM; read-out: % Growth Inhibition (GI %)
# Text: as §1
# UACC-62 = assay: NCI anticancer screening, Melanoma UACC-62; format: cell-based; details: Homo sapiens; UACC-62, 10 μM; read-out: % Growth Inhibition (GI %)
# Text: as §1
# UO-31 = assay: NCI anticancer screening, Renal Cancer UO-31; format: cell-based; details: Homo sapiens; UO-31, 10 μM; read-out: % Growth Inhibition (GI %)
# Text: as §1
# UACC-257 = assay: NCI anticancer screening, Melanoma UACC-257; format: cell-based; details: Homo sapiens; UACC-257, 10 μM; read-out: % Growth Inhibition (GI %)
# Text: as §1
# DU-145 = assay: NCI anticancer screening, DU-145; format: cell-based; details: Homo sapiens; DU-145, 10 μM; read-out: % Growth Inhibition (GI %)
# Text: as §1
# [1] = MTT cytotoxicity to normal human lung fibroblast Wi-38 cell line; format: cell-based; details: Wi-38 normal lung fibroblast cells, mean ± SEM, read-out: percentage of Wi-38 viability
# Method: Normal human lung fibroblast Wi-38 cell line was used to detect cytotoxicity of the studied compounds (Table S8). Wi-38 cell line was cultured in DMEM medium-contained 10% fetal bovine serum (FBS), seeded as 5x10^3 cells per well in 96-well cell culture plate and incubated at 37 °C in 5% CO2 incubator. After 24 h for cell attachment, serial concentrations of the synthetic compounds were incubated with Wi-38 cells for 72 h. Cell viability was assayed by MTT method (Mosmann, 1983). Twenty microliters of 5 mg/ml MTT (Sigma, USA) was added to each well and the plate was incubated at 37 °C for 3 h. Then MTT solution was removed, 100 µl DMSO was added and the absorbance of each well was measured with a microplate reader (BMG LabTech, Germany) at 570 nm.
# 786-0 = assay: NCI anticancer screening, Renal Cancer 786-0; format: cell-based; details: Homo sapiens; 786-0, 10 μM; read-out: % Growth Inhibition (GI %)
# Text: as §1
# BT-549 = assay: NCI anticancer screening, Breast Cancer BT-549; format: cell-based; details: Homo sapiens; BT-549, 10 μM; read-out: % Growth Inhibition (GI %)
# Text: as §1
# M14 = assay: NCI anticancer screening, Melanoma M14; format: cell-based; details: Homo sapiens; M14, 10 μM; read-out: % Growth Inhibition (GI %)
# Text: as §1
Structure (SMILES),inhibition at 5 µM (PC-3 cells) [%],inhibition at 10 µM (LOX IMVI) [%],inhibition at 10 µM (SK-MEL-28) [%],inhibition at 10 µM (OVCAR-4) [%],inhibition at 10 µM (MALME-3M) [%],inhibition at 10 µM (MCF7) [%],inhibition at 10 µM (RXF 393) [%],inhibition at 10 µM (NCI-H522) [%],inhibition at 10 µM (A549/ATCC) [%],inhibition at 10 µM (NCI-H322M) [%],inhibition at 10 µM (NCI-H460) [%],inhibition at 10 µM (RPMI-8226) [%],inhibition at 10 µM (MOLT-4) [%],inhibition at 10 µM (K-562) [%],inhibition at 10 µM (SNB-19) [%],inhibition at 10 µM (KM12) [%],inhibition at 10 µM (HOP-92) [%],inhibition at 10 µM (T-47D) [%],inhibition at 10 µM (SW-620) [%],inhibition at 10 µM (HT29) [%],also measured
"O=C(c1nc2ccccc2[nH]1)[C@H]1[C@H](c2ccc(C(F)(F)F)cc2)C2CSCN2[C@]12C(=O)Nc1ccccc12 (stereo partly drawn) [Compound 6c, (3S,6′R)-6'-(1H-Benzo [d]imidazole-2-carbonyl)-7'-(4-(trifluoromethyl)phenyl)-3′,6′,7′,7a′-tetrahydro-1′H-spiro [indoline-3.5′-pyrrolo [1,2-c]thiazol]-2-one]",54.1 ± 1.35,88.7,97.7,80.9,94.9,77.7,90.1,87.7,97.1,91.1,66.8,72,82.7,83.1,84.9,71.8,109,69.7,84.1,74.7,"inhibition at 10 µM (SF-268): 90.2%; melting point: 185 to 187 °C; inhibition at 10 µM (HS 578T): 83.9%; IC50 (MDA-MB 231 cells): 3.34 ± 0.21 µM; inhibition (MDA-MB 231 cells): 55.5 ± 2.5%; inhibition at 10 µM (SK-MEL-5): 94.2%; inhibition at 10 µM (UACC-62): 77.5%; inhibition at 10 µM (UO-31): 55.4%; inhibition at 10 µM (UACC-257): 98.5%; inhibition at 10 µM (DU-145): 97%; viability at 72 h, 5 µM [1]: 59.9 ± 2.84%; inhibition at 10 µM (786-0): 99.4%; inhibition at 10 µM (BT-549): 107%; inhibition at 10 µM (M14): 83.3%"
"O=C(c1nc2ccccc2[nH]1)[C@H]1[C@H](c2cccs2)C2CSCN2[C@]12C(=O)Nc1ccccc12 (stereo partly drawn) [Compound 6e, (3S,6′R)-6'-(1H-Benzo [d]imidazole-2-carbonyl)-7'-(thiophen-2-yl)-3′,6′,7′,7a′-tetrahydro-1′H-spiro [indoline-3.5′-pyrrolo [1,2-c]thiazol]-2-one]",58.2 ± 0.729,97.5,105,93.9,101,94.5,112,91.5,87.1,97.7,101,101,96.1,100,104,98.8,105,90.5,96.7,101,"inhibition at 10 µM (SF-268): 92.4%; melting point: 240 to 242 °C; inhibition at 10 µM (HS 578T): 101%; IC50 (MDA-MB 231 cells): 5.61 µM; inhibition (MDA-MB 231 cells): 58.2 ± 1.85%; inhibition at 10 µM (SK-MEL-5): 99%; inhibition at 10 µM (UACC-62): 90.8%; inhibition at 10 µM (UO-31): 76%; inhibition at 10 µM (UACC-257): 93.4%; inhibition at 10 µM (DU-145): 109%; viability at 72 h, 5 µM [1]: 51.7 ± 1.28%; inhibition at 10 µM (786-0): 100%; inhibition at 10 µM (BT-549): 94.1%; inhibition at 10 µM (M14): 100%"
"O=C(c1nc2ccccc2[nH]1)[C@H]1[C@H](c2ccc(F)cc2)C2CSCN2[C@]12C(=O)Nc1ccccc12 (stereo partly drawn) [Compound 6f, (3S,6′R)-6'-(1H-Benzo [d]imidazole-2-carbonyl)-7'-(4-fluorophenyl)-3′,6′,7′,7a′-tetrahydro-1′H-spiro [indoline-3.5′-pyrrolo [1,2-c]thiazol]-2-one]",46 ± 0.833,94.8,102,83.2,94.2,87.4,99.6,79.5,78.6,90.4,88.9,87.8,83.6,87.4,95.9,88.7,112,84.1,91.1,85.7,"inhibition at 10 µM (SF-268): 96.3%; melting point: 233 to 235 °C; inhibition at 10 µM (HS 578T): 98%; IC50 (MDA-MB 231 cells): 4.41 ± 0.448 µM; inhibition (MDA-MB 231 cells): 44.9 ± 3.59%; inhibition at 10 µM (SK-MEL-5): 94.7%; inhibition at 10 µM (UACC-62): 78.1%; inhibition at 10 µM (UO-31): 77%; inhibition at 10 µM (UACC-257): 83.9%; inhibition at 10 µM (DU-145): 111%; viability at 72 h, 5 µM [1]: 47.39 ± 0.092%; inhibition at 10 µM (786-0): 99%; inhibition at 10 µM (BT-549): 97.4%; inhibition at 10 µM (M14): 94.5%"
"O=C(c1nc2ccccc2[nH]1)[C@H]1[C@H](c2ccc(Cl)cc2Cl)C2CSCN2[C@]12C(=O)Nc1ccccc12 (stereo partly drawn) [Compound 6g, (3S,6′R)-6'-(1H-Benzo [d]imidazole-2-carbonyl)-7'-(2,4-dichlorophenyl)-3′,6′,7′,7a′-tetrahydro-1′H-spiro [indoline-3.5′-pyrrolo [1,2-c]thiazol]-2-one]",54.5 ± 1.56,67.2,78.3,57.6,86.2,51,40.7,71.7,62,79.5,55.5,42.5,43,65.6,70.1,52.3,77.6,54.4,72.9,61.9,"inhibition at 10 µM (SF-268): 47%; melting point: 235 to 237 °C; inhibition at 10 µM (HS 578T): 65.1%; IC50 (MDA-MB 231 cells): 6.22 µM; inhibition (MDA-MB 231 cells): 56.7 ± 0.87%; inhibition at 10 µM (SK-MEL-5): 81.9%; inhibition at 10 µM (UACC-62): 57%; inhibition at 10 µM (UO-31): 39.7%; inhibition at 10 µM (UACC-257): 74.4%; inhibition at 10 µM (DU-145): 86.9%; viability at 72 h, 5 µM [1]: 40 ± 1.1%; inhibition at 10 µM (786-0): 85.9%; inhibition at 10 µM (BT-549): 92.3%; inhibition at 10 µM (M14): 66.8%"

# From article PMC11033320, “Activation of p53 signaling and regression of breast and prostate carcinoma cells by spirooxindole-benzimidazole small molecules” (Frontiers in Pharmacology, 2024)
